Structures can show the parent of a compound that is named as a salt. Where two headings read alike, the source gives them in different places.
Assays:
Type in all cases: cell-based
[1] = test system: human Burkitt's lymphoma cell line Namalwa; assay: Caspase cascade activation (EC50), Namalwa; details: Namalwa cells, caspase cascade activation, read-out: caspase potency (EC50) Namalwa
Summary of the method: (§1)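 48 h compound exposure (0.016–10 μM final) at 37 °C, 5% CO2; then DEVD-R110 substrate in lysolecithin/DTT/PIPES pH 7.2 buffer, 3 h RT. Fluorescence ex485/em530; net RFU = T=3 h minus control T=0; ratio to control; sigmoidal fit → EC50 (nM).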

[2] = test system: human leukemia cell line K562; assay: Inhibition of cell proliferation (GI50), K562; details: K562 cells, 48 h, CellTiter-Glo
Procedure: (§2) Human breast cancer cell lines T-47D, human hepatocellular carcinoma cell line SNU398, human colon carcinoma cell line HCT116, human lung cancer cell line H1299, human leukemia cell line K562, human lymphoma cell line Raji, human B cell lymphoblastoid cell line Ramos, and human Burkitt's lymphoma cell line Namalwa were grown and harvested as in Example 100. An aliquot of […] of cells (4.4×10^4 cells/mL) was added to a well of a 96-well microtiter plate containing 5 μL of a 10% DMSO in RPMI-1640 media solution containing 10 nM to 100 μM of 3-(2-chlorophenyl)-6-(3,4-methylenedioxyphenyl)-7H-[1,2,4]triazolo[3,4-b][1,3,4]thiadiazine (1 nM to 10 μM final). An aliquot of 45 μL of cells was added to a well of a 96-well microtiter plate containing 5 μL of a 10% DMSO in RPMI-1640 media solution without compound as the control sample for maximal cell proliferation (LMax). The samples were mixed by agitation and then incubated at 37° C. for 48 h in a 5% CO2-95% humidity incubator. After incubation, the samples were removed from the incubator and 25 μL of CellTiter-Glo™ reagent (Promega) was added. The samples were mixed by agitation and incubated at room temperature for 10-15 min. Plates were then read using a luminescent plate reader (Model SPECTRAfluor Plus, Tecan) to give Ltest values.
(§3) The samples were mixed by agitation and then incubated at 37° C. for 0.5 h in a 5% CO2-95% humidity incubator. After incubation, the samples were removed from the incubator and 25 μL of CellTiter-Glo™ reagent (Promega) was added. The samples were mixed by agitation and incubated at […] 10-15 min at room temperature in a 5% CO2-95% humidity incubator. Fluorescence was read as above, (LStart) defining luminescence for initial cell number used as baseline in GI50 determinations.
(§4) Calculation: GI50 (dose for 50% inhibition of cell proliferation) is the concentration where [(Ltest−LStart)/(LMax−LStart)]=0.5.

[3] = test system: human colon carcinoma cell line HCT116; assay: Caspase cascade activation (EC50), HCT116; details: HCT116 cells, caspase cascade activation, read-out: caspase potency (EC50) HCT116
Summary of the method: as §1

[4] = test system: human breast cancer cell line T-47D; assay: Caspase cascade activation (EC50), T-47D; details: T47D cells, caspase cascade activation, read-out: caspase potency (EC50) T47D
Summary of the method: as §1

[5] = test system: human colon carcinoma cell line HCT116; assay: Inhibition of cell proliferation (GI50), HCT116; details: HCT 116 cells, 48 h, CellTiter-Glo
Procedure: as §2, §3, §4

[6] = test system: human lymphoma cell line Raji; assay: Inhibition of cell proliferation (GI50), Raji; details: Raji cells, 48 h, CellTiter-Glo
Procedure: as §2, §3, §4

[7] = test system: human B cell lymphoblastoid cell line Ramos; assay: Caspase cascade activation (EC50), Ramos; details: RAMOS cells, read-out: caspase potency (EC50) RAMOS
Summary of the method: as §1

[8] = test system: human Burkitt's lymphoma cell line Namalwa; assay: Inhibition of cell proliferation (GI50), Namalwa; details: Namalwa cells, 48 h, CellTiter-Glo
Procedure: as §2, §3, §4

[9] = test system: human B cell lymphoblastoid cell line Ramos; assay: Inhibition of cell proliferation (GI50), Ramos; details: Ramos cells, 48 h, CellTiter-Glo
Procedure: as §2, §3, §4

[10] = test system: human hepatocellular carcinoma cell line SNU398; assay: Caspase cascade activation (EC50), SNU398; details: SNU398 cells, caspase cascade activation, read-out: caspase potency (EC50) SNU398
Summary of the method: as §1

[11] = test system: human lymphoma cell line Raji; assay: Caspase cascade activation (EC50), Raji; details: RAJI cells, read-out: caspase potency (EC50) RAJI
Summary of the method: as §1

[12] = Homo sapiens, Burkitts lymphoma cell

SMILES	EC50 [1, 12]	GI50 ([2]; Homo sapiens)	EC50 ([3]; Homo sapiens, HCT-116)	EC50 ([4]; Homo sapiens)	GI50 ([5]; Homo sapiens)	GI50 ([6]; Homo sapiens)	EC50 ([7]; Homo sapiens)	GI50 [8, 12]	GI50 ([9]; Homo sapiens)	EC50 ([10]; Homo sapiens, SNU-398)	EC50 ([11]; Homo sapiens)	further results
COc1ccccc1-c1nnc2n1N=C(c1ccc(N3CCCC3)cc1)CS2 [Example 24, 3-(2-Methoxyphenyl)-6-(4-(pyrrolidin-1-yl)phenyl)-7H-[1,2,4]triazolo[3,4-b][1,3,4]thiadiazine]	35 nM	17 nM	62 nM	91 nM	41 nM	15 nM	62 nM	64 nM	16 nM	41 nM	107 nM	
COc1ccccc1-c1nnc2n1N=C(c1ccc(O)cc1)CS2 [Example 7, 6-(4-Hydroxyphenyl)-3-(2-methoxyphenyl)-7H-[1,2,4]triazolo[3,4-b][1,3,4]thiadiazine hydrobromide]	253 nM	219 nM	280 nM	173 nM	1180 nM	1000 nM	262 nM	579 nM	176 nM	148 nM	478 nM	
COc1ccc(-c2nnc3n2N=C(c2ccc(C)cc2)CS3)c(OC)c1 [Example 15, 3-(2,4-Dimethoxyphenyl)-6-(4-methylphenyl)-7H-[1,2,4]triazolo[3,4-b][1,3,4]thiadiazine hydrobromide]	7 nM	4 nM	8 nM	34 nM	10 nM	4 nM	8 nM	6 nM	1 nM	5 nM	12 nM	
COc1ccc(C2=Nn3c(nnc3-c3n[nH]c4c3CCC4)SC2)cc1 [Example V2]	250 nM	400 nM	268 nM	312 nM	1130 nM	1260 nM	256 nM	975 nM	346 nM	195 nM	444 nM	
COc1ccc(-c2nnc3n2N=C(c2ccc(N=[N+]=[N-])cc2)CS3)cc1OC [Example 31, 6-(4-Azidophenyl)-3-(3,4-dimethoxyphenyl)-7H-[1,2,4]triazolo[3,4-b][1,3,4]thiadiazine]	544 nM	581 nM	5550 nM	2390 nM	4250 nM	6330 nM	520 nM	1470 nM	503 nM	619 nM	534 nM	
COc1ccc(C2=Nn3c(nnc3-c3ccccc3F)SC2)cc1 [Example L2, 3-(2-Fluorophenyl)-6-(4-methoxyphenyl)-7H-[1,2,4]triazolo[3,4-b][1,3,4]thiadiazine]	76 nM	34 nM	122 nM	553 nM	142 nM	247 nM	60 nM	68 nM	20 nM	55 nM	85 nM	
COc1ccc(C2=Nn3c(nnc3-c3cccc(C)c3)SC2)cc1 [Example Q2]	80 nM	37 nM	100 nM	503 nM	359 nM	587 nM	65 nM	112 nM	33 nM	61 nM	121 nM	
COc1ccc(-c2nnc3n2N=C(c2ccc(N(C)C)cc2)CS3)cc1OC [Example 30, 6-(4-Dimethylminophenyl)-3-(3,4-dimethoxyphenyl)-7H-[1,2,4]triazolo[3,4-b][1,3,4]thiadiazine]												EC50 [1]: 55 nM; GI50 [2]: 50 nM; EC50 [3]: 221 nM; EC50 [4]: 360 nM; GI50 [5]: 126 nM; GI50 [6]: 157 nM; EC50 [7]: 57 nM; GI50 [8]: 102 nM; GI50 [9]: 100 nM; EC50 [10]: 119 nM; EC50 [11]: 64 nM
COc1ccc(C2=Nn3c(nnc3-c3ccc(C)cc3)SC2)cc1 [Example U2]	129 nM	72 nM	168 nM	537 nM	1100 nM	730 nM	127 nM	256 nM	100 nM	86 nM	190 nM	
COc1ccccc1-c1nnc2n1N=C(c1ccc(OCCO)cc1)CS2 [Example 10, 6-(4-(2-Hydroxyethoxy)phenyl)-3-(2-methoxyphenyl)-7H-[1,2,4]triazolo[3,4-b][1,3,4]thiadiazine]	254 nM	315 nM	612 nM	300 nM	1670 nM	746 nM	306 nM	618 nM	173 nM	267 nM	431 nM	
CCN(CC)c1ccc(C2=Nn3c(nnc3-c3cc(OC)cc(OC)c3)SC2)cc1 [Example 26, 6-(4-Diethylaminophenyl)-3-(3,5-dimethoxyphenyl)-7H-[1,2,4]triazolo[3,4-b][1,3,4]thiadiazine]	106 nM	20 nM	280 nM	297 nM	20 nM	17 nM	73 nM	16 nM	20 nM	114 nM	154 nM	
CCOc1ccc(C2=Nn3c(nnc3-c3ccccc3Br)SC2)cc1 [Example A3]	104 nM	41 nM	314 nM	1080 nM	361 nM	103 nM	125 nM	79 nM	17 nM	243 nM	268 nM	
COc1ccc(C2=Nn3c(nnc3-c3cccc(F)c3)SC2)cc1 [Example C3]	132 nM	63 nM	424 nM	1710 nM	852 nM	130 nM	152 nM	112 nM	100 nM	126 nM	247 nM	
COc1ccc(C2=Nn3c(nnc3-c3ccccc3Br)SC2)cc1 [Example D3]	54 nM	44 nM	143 nM	332 nM	100 nM	85 nM	76 nM	33 nM	49 nM	61 nM	115 nM	
COc1ccc(C2=Nn3c(nnc3-c3cccc(Br)c3)SC2)cc1 [Example I2, 3-(3-Bromophenyl)-6-(4-methoxyphenyl)-7H-[1,2,4]triazolo[3,4-b][1,3,4]thiadiazine]	629 nM	96 nM	612 nM	905 nM	376 nM	176 nM	379 nM	400 nM	119 nM	329 nM	523 nM	

Reference: patent US20080045514A1 (Cytovia, Inc., priority 2006, published 2008)
